Experimental data from US11707456B2, “Processes for preparing arimoclomol citrate and intermediates thereof” (KemPharm Denmark A/S, priority 2020, dated 2023).

What was measured:
[1] = Stability of ORZY-04 on drying at 45° C. in vacuum; type: physicochemical; conditions: after 168 h of drying at 45° C. in vacuum
Method: A citric acid solution was prepared by charging citric acid (15.01 g, […]) and MeOH (100 mL) in a separate container and stirring for 5 min. at 20° C. The citric acid solution was then charged to the container containing the reaction solution, and the mixture was cooled to 0° C. and stirred for at least 12 h at 0° C. ORZY-04 was then isolated by filtration of the obtained suspension, and washed with MeOH (40 mL). Finally, the solids were dried at 45° C. in vacuum. Results

[2] = parameters: species or system human; conditions: in vivo, po
From the text: The stability permits that the permeability of arimoclomol is high based on urinary recovery in human mass balance trial.

[O-][n+]1cccc(/C(Cl)=N/OC[C@H](O)CN2CCCCC2)c1 [ORZY-04]
stability on drying [1]: stable

[O-][n+]1cccc(C(Cl)=NOC[C@H](O)CN2CCCCC2)c1 [arimoclomol, N-{[(2R)-2-hydroxy-3-piperidin-1-ylpropyl]oxy}pyridine-3-carboximidoyl chloride 1-oxide]
drug-related material recovered in faeces [2]: 12%
